Test results as given in publication PMC9016803, “Mitochondria-targeted half-sandwich iridium(III)-Cp*-arylimidazophenanthroline complexes as antiproliferative and bioimaging agents against triple negative breast cancer cells MDA-MB-468” (RSC Advances, 2022).
pIC50: −log10 of the molar value. Several values for one entry are separate records, joined by “and”; a condition that tells them apart may be missing. Equal values may be shown once.

How the values were obtained:
MDA-MB-468 cells [1] = test: Mitochondrial membrane potential, JC-1 staining, flow cytometry; type: cell-based
Experimental: The cells treated with the mitochondrial uncoupler CCCP (carbonyl cyanide m-chlorophenylhydrazone), which mediates the dissipation of mitochondrial membrane potential, served as positive control for the detection of mitochondrial dysfunction. […] Unstained control represented in Fig. 10A has been used for gating purposes. […]

MDA-MB-468 cells [2] = test: Cell cycle analysis; type: cell-based; details: 5 μM
Experimental: The IrL1 complex exerted a G0/G1 cell cycle arrest at the highest tested concentration of 5 μM. The effects of various concentrations of IrL1 complex on the cell cycle of breast cancer cell line MDA-MB-468 cells were further explored by cell cycle analysis.

MDA-MB-468 cells [3] = test: MTT in vitro cytotoxicity assay, triple negative breast cancer cells; type: cell-based; details: MDA-MB-468, MTT, 48 h
Experimental: The in vitro cytotoxicity of complexes IrL1–IrL5 and cisplatin were investigated using the typical 3-(4,5-dimethylthiazol-2-yl)-2,5-diphenyltetrazolium bromide (MTT) assay protocol against a panel of triple negative cancer cell line MDA-MB-468. The cells were initially incubated with the all test compounds at concentrations ranging from 0.5–50 μM for 48 h in vitro.
Cytotoxicity study of all the synthesized compounds against triple negative breast cancer cells MDA-MB-468 and immortalized human keratinocyte cell line HaCaT were done with a drug incubation period of 48 h by following standard procedure that were mentioned in ESI. ^† Preliminary studies were done to understand the mode of action of the complex to induce cytotoxicity using flow cytometric methods.
For doing the cell culture the cells were retained in DMEM media (Gibco), added with 10% fetal bovine serum (Himedia, India), 1% penicillin and streptomycin and 1% of Glutmax (Gibco, Thermo Scientific, USA) at 37°C in 5% CO2. When the cells attained 70%-80% confluency they were trypsinized using 0.25% trypsin-EDTA (Thermo Fisher Scientific, […]
In vitro cytotoxicity study was measured by standard MTT assay protocol.1 First the prepared complexes (IrL1-IrL5) were dissolved in 0.1% DMSO followed by dilution with DMEM medium. One cancer cell lines i.e. triple negative breast cancer cells (MDA-MB-468) and one normal cell line i.e. immortalized human keratinocyte cell line (HaCaT) were used for this assay. Approximately 1×10^4 cells per well were cultured in 100 μl of a growth medium in 96-well plates and then incubated under 5% CO2 atmosphere at 37°C temperature. Then the incubated cells were treated with different concentrations of the complexes in the volume of […]. The cisplatin was taken as standard positive control for this experiment. The Cells which were in the control wells, also engaged the same volume of medium containing 0.1% DMSO. After 48 h, the medium was superfluous and cell cultures were again incubated with 100 μL of MTT reagent (1 mg/ml) for 5 h at 37 °C. Then the resultant suspension was kept on micro vibrator for 10 min and the absorbance was recorded at λ = 570 nm in ELISA plate reader. The experiment was also performed in triplicate. The data were represented as the growth inhibition percentage i.e. % growth inhibition = 100 − [(AD × 100)/AB], where AD, measured absorbance in wells which contain samples and AB, measured absorbance for blank wells (cells with a medium and a vehicle). […]

CT-DNA = test: Ethidium bromide displacement (fluorescence quenching) assay; type: binding, calf
Experimental: The competitive binding of compounds IrL1 to CT-DNA was studied via fluorescence spectroscopy using ethidium bromide (EtBr) as the fluorophore. […] Intrinsic binding constant (Kb), Stern–Volmer quenching constant (Ksv) and apparent binding constant (Kapp) were highlighted in Table 2. […]
Ethidium bromide displacement assay
The ethidium bromide (EtBr) displacement assay was carried out to illustrate the mode of binding between the potent compounds with DNA.4 The apparent binding constant (K app) of the complexe IrL1 to Ct-DNA were calculated using ethidium bromide (EtBr) as a spectral probe in 5 mM Tris-HCl buffer (pH 7.4). The values of the apparent binding constant (K app) were obtained by using the equation (iii):
Kapp × [Complex]50 = kEtBr × [EtBr]⋯⋯⋯(iii)
Where KEtBr is the EtBr binding constant (K EtBr = 1.0 x 107 M-1), and [EtBr] = 8 x 10^-6 M.
Stern-Volmer equation was followed for quantitative determination of the Stern-Volmer quenching constant (K SV).5 Origin (8.5) software was used to plot the fluorescence data to obtain linear plot of I0/I vs. [complex]. The value of KSV was calculated from the following […]
Where I0 = fluorescence intensity in absence of complex and I = fluorescence intensities in presence of complex of concentration [Q].
We are acquainted with the fact that serum albumin proteins are the main component. […]

[Iridium(III)-Cp*-2-(naphthalen-1-yl)-1H-imidazo[4,5-f][1,10]phenanthroline]PF6 [IrL1]
cells with damaged mitochondria (JC-1 monomers) (MDA-MB-468 cells [1]; 1 μM): 27.86% | cells with damaged mitochondria (JC-1 monomers) (MDA-MB-468 cells [1]; 3 μM): ~47.52% | cells with damaged mitochondria (JC-1 monomers) (MDA-MB-468 cells [1]; 5 μM): 67.02% | G0/G1 phase cells (MDA-MB-468 cells [2]): 53.32% | G2/M phase cells (MDA-MB-468 cells [2]): ~18.37% | S phase cells (MDA-MB-468 cells [2]): ~28.32% | pIC50 (MDA-MB-468 cells [3]): 5.43 and 5.44 | Ksv, Stern–Volmer quenching constant (CT-DNA; EtBr-bound CT-DNA): 22000 M⁻¹ | Kapp, apparent DNA binding constant (CT-DNA; competitive displacement of EtBr): 2500 M⁻¹
